According to article PMC4305287, “Two Novel α7 Nicotinic Acetylcholine Receptor Ligands: In Vitro Properties and Their Efficacy in Collagen-Induced Arthritis in Mice” (PLoS ONE, 2015):
Where “and” joins values, the source holds several entries; their conditions need not be identical. Equal entries are not always repeated. Where two headings read alike, the source gives them in different places.

Legend:
α4β2 nAChR = molecular target: T1, α4β2 nAChR (Homo sapiens, UniProt P17787+P43681); assay: ion channel assay on α4β2 nAChR in Xenopus oocytes; format: biochemical; conditions: data not shown
T1 construct: expressed in transfected cells; host or cells: Xenopus laevis oocytes injected with subunit cRNAs; clones from Dr. Jon Lindstrom
Protocol: Human nAChR receptor clones were obtained from Dr. Jon Lindstrom (University of Pennsylvania, Philadelphia, PA). The RIC-3 clone was obtained from Dr. Millet Treinin (Hebrew University, Jerusalem, Israel). Subsequent to linearization and purification of cloned cDNAs, RNA transcripts were prepared in vitro using the appropriate mMessage Machine kit from Ambion Inc. (Austin, TX).
The preparation of Xenopus laevis oocytes for RNA expression was conducted as previously described. Stage 5 oocytes were isolated and injected with […] (5–20 ng) of each subunit cRNAs. Recordings were conducted 2–5 days after injection. […]
Each oocyte received two initial control applications of 300 μM ACh, followed by the experimental drug application, and subsequent control application of 300 μM ACh, unless otherwise indicated. Responses to experimental drug applications were determined relative to the preceding ACh control responses in order to normalize the data, compensating for the varying levels of channel expression among the oocytes. Responses for α7 nAChR were calculated as net charge, since peak currents inaccurately report the agonist concentration dependence of α7 nAChR-mediated responses. […]

[1] = pharmacokinetics in CD1 mice; format: in vivo, mouse; conditions: for Kp at 30 min: CD1, mouse, brain, read-out: Brain penetration; for Kp at 30 min / Brain penetration: relative to plasma level 30 min after 1 mg/kg IV; for bioavailability: read-out: %F (bioavailability)
Protocol: Pharmacokinetic studies were carried out at Cerep using non-cannulated, non-fasted CD1 mice (Charles River Laboratories, Wilmington, MA). PMP-311 or PMP-072 were formulated in phosphate buffered saline (PBS), pH 7.4, as a clear solution and 1 mg/kg was administered by bolus intravenous (IV) injection or 5 mg/kg by oral gavage. Plasma samples were obtained from 3 mice per time point at 15, 30, 60, 120, 240, 360, 480 and 1440 min post-dose. The plasma samples were processed using acetonitrile precipitation and analyzed by HPLC-MS or HPLC-MS/MS to determine the concentration of drug as compared to a plasma calibration curve (aliquots of drug-free plasma were spiked with the test compound at the specified concentration levels and processed together with the unknown plasma samples using the same procedure). The processed plasma samples were stored frozen (−20°C) until the HPLC-MS/MS analysis. Peak areas were recorded, and the concentrations of the test compound in the unknown plasma samples were determined using the respective calibration curve. The reportable linear range of the assay was determined, along with the lower limit of quantitation (LLQ).
Plots of plasma concentration of compound versus time were constructed. The fundamental pharmacokinetic parameters of compound after oral and IV dosing (Cmax: maximum concentration, Tmax: time to maximum concentration, T1/2: terminal elimination half-life, AUC: area under the curve, CI: clearance, Vd: volume of distribution, and %F: bioavailability) were obtained from the non-compartmental analysis of the plasma data using WinNonlin (Pharsight, St. Louis, MO).

[2] = test system: T2, human α7 nAChR primed with PNU-120596; assay: electrophysiology of oocytes primed with PNU-120596; format: biochemical; conditions: after 60 s priming with 300 μM PNU-120596; PMP-311 1 μM, PMP-072 10 μM, MLA 10 μM
T2 construct: expressed in transfected cells; host or cells: Xenopus laevis oocytes injected with cRNA; clones from Dr. Jon Lindstrom (α7) and Dr. Millet Treinin (RIC-3)
Protocol: Each oocyte received two initial control applications of 300 μM ACh, followed by the experimental drug application, and subsequent control application of 300 μM ACh, unless otherwise indicated. Responses to experimental drug applications were determined relative to the preceding ACh control responses in order to normalize the data, compensating for the varying levels of channel expression among the oocytes. Responses for α7 nAChR were calculated as net charge, since peak currents inaccurately report the agonist concentration dependence of α7 nAChR-mediated responses. […] Imax, n, and the EC50 were all unconstrained for the fitting procedures except in the case of the ACh concentration-response curves.

[3] = CD1, plasma, mouse, 5 mg/kg oral

T1 sequence (P43681 29-627 limits assumed): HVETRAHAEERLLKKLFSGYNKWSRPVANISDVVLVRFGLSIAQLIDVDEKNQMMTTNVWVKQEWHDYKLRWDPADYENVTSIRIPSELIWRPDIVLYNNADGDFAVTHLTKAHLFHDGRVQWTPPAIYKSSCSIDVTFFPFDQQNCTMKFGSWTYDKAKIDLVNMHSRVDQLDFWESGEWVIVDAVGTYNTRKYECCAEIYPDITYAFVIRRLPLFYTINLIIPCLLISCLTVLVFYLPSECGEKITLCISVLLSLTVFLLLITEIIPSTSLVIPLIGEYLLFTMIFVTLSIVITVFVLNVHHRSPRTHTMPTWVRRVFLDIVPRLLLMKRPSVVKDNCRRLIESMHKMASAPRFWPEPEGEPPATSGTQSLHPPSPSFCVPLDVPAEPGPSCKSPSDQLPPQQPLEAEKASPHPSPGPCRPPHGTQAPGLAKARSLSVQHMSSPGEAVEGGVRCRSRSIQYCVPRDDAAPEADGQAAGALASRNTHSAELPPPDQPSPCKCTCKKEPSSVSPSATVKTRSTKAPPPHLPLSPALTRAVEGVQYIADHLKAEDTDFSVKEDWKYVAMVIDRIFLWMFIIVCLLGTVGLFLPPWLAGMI
T1 sequence (P17787 26-502): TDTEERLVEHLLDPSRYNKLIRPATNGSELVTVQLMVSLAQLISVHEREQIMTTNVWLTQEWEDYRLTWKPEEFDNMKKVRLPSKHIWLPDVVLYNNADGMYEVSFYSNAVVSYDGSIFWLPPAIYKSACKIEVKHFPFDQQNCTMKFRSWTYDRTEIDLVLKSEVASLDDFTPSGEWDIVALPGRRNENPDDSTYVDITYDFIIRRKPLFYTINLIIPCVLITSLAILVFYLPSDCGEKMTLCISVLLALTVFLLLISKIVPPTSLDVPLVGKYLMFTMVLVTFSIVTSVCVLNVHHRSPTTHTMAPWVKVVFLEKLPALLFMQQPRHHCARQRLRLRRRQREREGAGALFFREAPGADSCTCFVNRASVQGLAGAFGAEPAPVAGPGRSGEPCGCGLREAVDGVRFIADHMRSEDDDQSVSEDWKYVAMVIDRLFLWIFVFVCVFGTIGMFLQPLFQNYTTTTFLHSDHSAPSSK

Row | SMILES | IC50 (α4β2 nAChR; read-out: IC50, antagonist of α4β2 nAChR) | IC50 (α4β2 nAChR; ion channel assay, read-out: IC50, inhibition of α4β2 nAChR) | Kp at 30 min [1] | Vd ([1]; CD1, plasma, mouse, 1 mg/kg IV) | clearance ([1]; CD1, plasma, mouse, 1 mg/kg IV) | half-life ([1]; CD1, plasma, mouse, 1 mg/kg IV) | AUC [1, 3] | Cmax [1, 3] | Tmax [1, 3] | half-life [1, 3] | bioavailability [1, 3] | Brain penetration [1] | Cl ([1]; mouse, 1 mg/kg IV) | T1/2 ([1]; mouse, 5 mg/kg oral) | ion channel response of PNU-120596 primed cells [2]
1 | c1cncc(OC[C@@H]2CNCCN2c2nc3ncccc3o2)c1 [PMP-311, (S)-2-(2-((Pyridin-3-yloxy)methyl)piperazin-1-yl)oxazolo[4,5-b]pyridine] | ~20 nM | < 1000 nM | 0.44 | 1.94 L/kg | 72 mL/min/kg | 19 min | 567 ng·h/mL | 787 ng/mL and 2.5 µM | 15 min | 98 min | 50% | 44% |  |  | 
2 | COc1ccc(NC(=O)N2CCNC[C@@H]2COc2cccnc2)cc1 [PMP-072, (R)-N-(4-methoxyphenyl)-2-((pyridin-3-yloxy)methyl)piperazine-1-carboxamide] |  |  | 0.06 | 5.83 L/kg |  | 39 min | 588 ng·h/mL | 324 ng/mL and 940 nM | 30 min |  | 76% | 6% | 103 mL/min/kg | 104 min | able to activate large ion channel currents
